# Test results taken from patent publication US9538763B2, “Cleaning, disinfecting and microbicidal compositions” (priority 2009, dated 2017).
# Legend:
# Format in all cases: cell-based
# Salmonella = test: treatment of Salmonella-contaminated tomatoes; settings: 150 ppm
# Method: The microbicidal efficacy of the microbicidal disinfecting composition of Example 1 (composition A) was further tested and proven effective against Salmonella on contaminated tomatoes. When Salmonella-contaminated tomatoes were treated with 0.1% solution of composition A, the viable bacterial population was reduced by 2.31 log10 CFU as compared with 2.11 log10 CFU with 150 ppm of hypochlorite.
# Staphylococcus aureus = test: modified detergent and germicidal sanitizer test of the A.O.A.C.; settings: 50 ppm hypochlorite control
# Method: (§1) The microbicidal efficacy of the microbicidal disinfecting compositions of Examples 1-3 (compositions A-C) were evaluated with 50 ppm of hypochlorite as a control against Staphylococcus aureus and Escherichia coli by the modified detergent and germicidal sanitizer test of the A.O.A.C. (Lopes, 1986).
# Escherichia coli = test: as above; settings: 50 ppm hypochlorite control
# Method: as §1
smiles,measurement,setting,value
"OCl [Hypochlorite, hypochlorite]",reduction of viable bacterial population,Salmonella,2.11 log10 CFU
same,% Kill Staph. aureus,Staphylococcus aureus,>99.999%
same,% Kill E. coli,Escherichia coli,>99.999%
